Data published in EP2848615A1, “New pyrazole derivatives as CRAC channel modulators” (Almirall, S.A., priority 2013, dated 2015).
pIC50: −log10 of the molar value.

Key:
Jurkat E6-1 cells [1] = test: Fluorescent Calcium Flux Assay (thapsigargin store depletion, FLIPR Calcium 5 dye); format: cell-based; conditions: Homo sapiens, Thapsigargin 10µM, 2mM final calcium concentration, read-out: Ca^2+ flux IC50
Procedure: Fluorescent Calcium Flux Assay
Jurkat E6-1 cells were obtained from ATCC (number TIB-152™) and maintained as ATCC recommend; in medium RPMI-1640 with 10% FBS at 37°C and 5% CO2.
Before the assay, Jurkat cells were grown at a density of 2 millions cells/ml in cell culture media (RPMI with 10% FBS) in a T-175 flask at 37°C and 5% CO2.
The day of the assay, cells were harvested by centrifugation (5 minutes at 1500 rpm) and the pellet were suspended in Ca^2+ free assay buffer (HBSS w/o Ca^2+ and Mg ^2+, 20mM Hepes and 1 mM MgCl2, pH 7.4) at a density of 5 million cells/ml.
Calcium depletion was initiated by the addition to the cell suspension of Thapsigarguin at a final assay concentration of 10µM. 20µl of the cellular suspension containing Thapsigargin (100.000 cells/well) were plated into 384 well plates (corning 3711) and incubated at RT for 15 minutes.
Test compounds were diluted in DMSO 100% to get a 10^-2M stock solution and serial dilutions 1/3 were performed in the same solvent. Then, 20µl of test compounds, diluted 75 times in Ca^2+ free assay buffer, were added to the cells and incubated at RT for 1h.
Once this incubation was completed, 5 µl of dye solution (FLIPR Calcium 5 Express Kit, Molecular Devices), prepared as Molecular Devices recommend, were added into the assay plates followed by an extra incubation period of 1 hour at room temperature. After the second incubation period, assay plates were placed into the FLIPR Tetra from Molecular Devices. Fluorescence was measured at a wavelength of 525nm after the dye excitation at 485nm. The initial baseline was measured during 20 seconds, and then 8µl of a 13mM Calcium solution in assay buffer were added (2mM final calcium concentration) except for basal wells, where assay buffer without calcium was added. At this time, changes in the cellular fluorescent were measured for an extra 80 seconds.
Peak and base line were taken for the calculation of the ratio (Peak/Base Line). Total, basal and compound well ratio values were used to calculate %Inhibition.

Jurkat E6-1 cells [2] = test: In vitro Assay of Cytokine Release from T Cells (PHA-stimulated IL-2, ELISA); format: cell-based; conditions: Homo sapiens, PHA 20 µg/ml, 20 hours, IL-2 by ELISA, read-out: Jurkat IL2 IC50
Procedure: In vitro Assay of Cytokine Release from T Cells
Jurkat E6-1 cells were obtained from American Type Culture Collection (ATCC) and maintained in complete medium with 10% fetal bovine serum (FBS) at 37°C/5%CO2. Cells were plated in 100 µL of Dubelcco's Modified Eagle Medium (DMEM) with 1% FBS in a 96 well plate at a density of 1x10^6 cells/well and 50 µL of test compound was added. Cells were then stimulated by the addition of 50 µL of phytohemagglutinin (PHA) (final concentration 20 µg/ml) and incubated at 37°C/5%CO2 for 20 hours. On the following day, the supernatants were collected and assayed for IL-2 levels by ELISA according to the manufacturer's protocols. The IC50 value was calculated as the concentration at which 50% of secreted IL-2 in vehicle is inhibited.

pIC50 (Jurkat E6-1 cells [1]) | pIC50 (Jurkat E6-1 cells [2]) | Compound
6.25 | 6.39 | Cn1nc(-c2ccccc2)cc1NC(=O)c1cc(-c2c(F)cccc2Cl)[nH]n1 [Example 6, 5-(2-chloro-6-fluorophenyl)-N-(1-methyl-3-phenyl-1H-pyrazol-5-yl)-1H-pyrazole-3-carboxamide]
6.48 | 6.89 | Cn1nc(C(F)(F)F)cc1NC(=O)c1cc(-c2c(F)cccc2Cl)[nH]n1 [Example 1, 5-(2-chloro-6-fluorophenyl)-N-[1-methyl-3-(trifluoromethyl)-1H-pyrazol-5-yl]-1H-pyrazole-3-carboxamide]
6.87 | 7.21 | COc1ccc(OC)c(NC(=O)c2cc(-c3c(F)cccc3Cl)[nH]n2)c1 [Example 5, 5-(2-chloro-6-fluorophenyl)-N-(2,5-dimethoxyphenyl)-1H-pyrazole-3-carboxamide]
